Assay results as given in PubChem BioAssay (NCI).
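Assay format: 96-well plates, 48-hour exposure. TGI marks complete inhibition of growth.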

Columns and labels:
Assay in all cases: growth of human tumour cells (NCI), 48 h
MALME-3M melanoma = system: MALME-3M melanoma
EKVX NSCLC = system: EKVX NSCLC
PC-3 prostate = system: PC-3 prostate
OVCAR-8 ovarian = system: OVCAR-8 ovarian
SF-268 CNS = system: SF-268 CNS
A498 renal = system: A498 renal
SW-620 colon = system: SW-620 colon
SF-295 CNS = system: SF-295 CNS
HOP-92 NSCLC = system: HOP-92 NSCLC
UACC-257 melanoma = system: UACC-257 melanoma
K-562 leukemia = system: K-562 leukemia
MDA-N = system: MDA-N
SK-MEL-5 melanoma = system: SK-MEL-5 melanoma
NCI-H23 lung = system: NCI-H23 lung
SK-MEL-2 melanoma = system: SK-MEL-2 melanoma
MOLT-4 leukemia = system: MOLT-4 leukemia
SNB-75 CNS = system: SNB-75 CNS
SR leukemia = system: SR leukemia
SF-539 CNS = system: SF-539 CNS
NCI-H460 lung = system: NCI-H460 lung
SK-OV-3 ovarian = system: SK-OV-3 ovarian
RPMI-8226 leukemia = system: RPMI-8226 leukemia
HCC-2998 colon = system: HCC-2998 colon
CAKI-1 renal = system: CAKI-1 renal
HOP-62 NSCLC = system: HOP-62 NSCLC
U251 CNS = system: U251 CNS
SN12C renal = system: SN12C renal
NCI-H226 lung = system: NCI-H226 lung
COLO 205 colon = system: COLO 205 colon
LOX IMVI melanoma = system: LOX IMVI melanoma
HL-60(TB) leukemia = system: HL-60(TB) leukemia
HCT-116 colon = system: HCT-116 colon
MCF7 breast = system: MCF7 breast
RXF 393 renal = system: RXF 393 renal
HS 578T breast = system: HS 578T breast
SNB-19 CNS = system: SNB-19 CNS
NCI/ADR-RES ovarian = system: NCI/ADR-RES ovarian
MDA-MB-435 = system: MDA-MB-435
T-47D breast = system: T-47D breast
786-0 renal = system: 786-0 renal
OVCAR-3 ovarian = system: OVCAR-3 ovarian
HCT-15 colon = system: HCT-15 colon
OVCAR-4 ovarian = system: OVCAR-4 ovarian
UACC-62 melanoma = system: UACC-62 melanoma
ACHN renal = system: ACHN renal
BT-549 breast = system: BT-549 breast
IGROV1 ovarian = system: IGROV1 ovarian
NCI-H522 lung = system: NCI-H522 lung
UO-31 renal = system: UO-31 renal
A549 NSCLC = system: A549 NSCLC
TK-10 renal = system: TK-10 renal
SK-MEL-28 melanoma = system: SK-MEL-28 melanoma
KM12 colon = system: KM12 colon
MDA-MB-231 breast = system: MDA-MB-231 breast
HT29 colon = system: HT29 colon
CCRF-CEM leukemia = system: CCRF-CEM leukemia
M14 melanoma = system: M14 melanoma
OVCAR-5 ovarian = system: OVCAR-5 ovarian
DU-145 prostate = system: DU-145 prostate

Compound `CC(C)(C)OC(=O)NCC(=O)N(CCc1ccc(Cl)c(Cl)c1)CCN1CCCC1` has a TGI (MALME-3M melanoma) of 36.4 µM, a TGI (EKVX NSCLC) of 48.1 µM and a TGI (PC-3 prostate) of 30.3 µM. It also gave a TGI (OVCAR-8 ovarian) of 35.8 µM, a TGI (SF-268 CNS) of 31.6 µM and a TGI (A498 renal) of 32.8 µM. It also gave a TGI (SW-620 colon) of 37.3 µM, a TGI (SF-295 CNS) of 33.1 µM and a TGI (HOP-92 NSCLC) of 19.4 µM. It also gave a TGI (UACC-257 melanoma) of 29.9 µM, a TGI (K-562 leukemia) of 25.1 µM and a TGI (MDA-N) of 29.1 µM. It also gave a TGI (SK-MEL-5 melanoma) of 28.4 µM, a TGI (NCI-H23 lung) of 37.1 µM and a TGI (SK-MEL-2 melanoma) of 31.3 µM. For the same compound, the TGI (MOLT-4 leukemia) was 28.5 µM, the TGI (SNB-75 CNS) was 37.2 µM and the TGI (SR leukemia) was 32.2 µM. For the same compound, the TGI (SF-539 CNS) was 32.8 µM, the TGI (NCI-H460 lung) was 30.2 µM and the TGI (SK-OV-3 ovarian) was 32.1 µM. It also gave a TGI (RPMI-8226 leukemia) of 23.8 µM, a TGI (HCC-2998 colon) of 16.2 µM and a TGI (CAKI-1 renal) of 36 µM. For the same compound, the TGI (HOP-62 NSCLC) was 27.7 µM, the TGI (U251 CNS) was 28.7 µM and the TGI (SN12C renal) was 32.7 µM. The TGI (NCI-H226 lung) was 32.3 µM, the TGI (COLO 205 colon) was 30 µM and the TGI (LOX IMVI melanoma) was 29.3 µM. The TGI (HL-60(TB) leukemia) was 30.4 µM, the TGI (HCT-116 colon) was 27.9 µM and the TGI (MCF7 breast) was 31.8 µM. The TGI (RXF 393 renal) was 29.7 µM, the TGI (HS 578T breast) was 46.5 µM and the TGI (SNB-19 CNS) was 34.4 µM. For the same compound, the TGI (NCI/ADR-RES ovarian) was 36.7 µM, the TGI (MDA-MB-435) was 28.4 µM and the TGI (T-47D breast) was 53.5 µM. It also gave a TGI (786-0 renal) of 28 µM, a TGI (OVCAR-3 ovarian) of 32.2 µM and a TGI (HCT-15 colon) of 37.4 µM. For the same compound, the TGI (OVCAR-4 ovarian) was 54.9 µM, the TGI (UACC-62 melanoma) was 32.2 µM and the TGI (ACHN renal) was 40.8 µM. For the same compound, the TGI (BT-549 breast) was 42.1 µM, the TGI (IGROV1 ovarian) was 31.5 µM and the TGI (NCI-H522 lung) was 29.4 µM. For the same compound, the TGI (UO-31 renal) was 28.7 µM, the TGI (A549 NSCLC) was 37.7 µM and the TGI (TK-10 renal) was 31.5 µM. The TGI (SK-MEL-28 melanoma) was 29.7 µM, the TGI (KM12 colon) was 32.6 µM and the TGI (MDA-MB-231 breast) was 26.6 µM. It also gave a TGI (HT29 colon) of 23.7 µM, a TGI (CCRF-CEM leukemia) of 28.4 µM and a TGI (M14 melanoma) of 28.6 µM. It also gave a TGI (OVCAR-5 ovarian) of 38.7 µM and a TGI (DU-145 prostate) of 32.3 µM.
